# ChEMBL document CHEMBL4400559, “Exploiting the furo[2,3-b]pyridine core against multidrug-resistant Mycobacterium tuberculosis” (Bioorg Med Chem Lett, 2019)
# How the values were obtained:
# Format in all cases: functional
# [1] = system: Mycobacterium tuberculosis; assay: Antibacterial activity against drug-resistant Mycobacterium tuberculosis isolate 2 after 7 days by resazurin microtiter assay; conditions: isolate 2, 168 h
# [2] = system: Mycobacterium tuberculosis; assay: Antibacterial activity against drug-resistant Mycobacterium tuberculosis isolate 3 after 7 days by resazurin microtiter assay; conditions: isolate 3, 168 h
# [3] = system: Mycobacterium tuberculosis; assay: Antibacterial activity against drug-resistant Mycobacterium tuberculosis isolate 4 after 7 days by resazurin microtiter assay; conditions: isolate 4, 168 h
# [4] = system: Mycobacterium tuberculosis; assay: Antibacterial activity against drug-resistant Mycobacterium tuberculosis isolate 5 after 7 days by resazurin microtiter assay; conditions: isolate 5, 168 h
# [5] = system: Mycobacterium tuberculosis; assay: Antibacterial activity against drug-resistant Mycobacterium tuberculosis isolate 1 after 7 days by resazurin microtiter assay; conditions: isolate 1, 168 h
SMILES,MIC [1],MIC [2],MIC [3],MIC [4],MIC [5]
CCOC(=O)c1c(C)oc2nc(N3CCCC3)ccc12,20.2 µM,9.3 µM,15.8 µM,16.6 µM,18.1 µM
CCCCNc1ccc2c(C(=O)OCC)c(C(C)C)oc2n1,> 82.2 µM,> 82.2 µM,> 82.2 µM,> 82.2 µM,> 82.2 µM
NCC[C@H](O)C(=O)N[C@@H]1C[C@H](N)[C@@H](O[C@H]2O[C@H](CN)[C@@H](O)[C@H](O)[C@H]2O)[C@H](O)[C@H]1O[C@H]1O[C@H](CO)[C@@H](O)[C@H](N)[C@H]1O [AMIKACIN],1.6 µM,0.4 µM,0.7 µM,1.7 µM,0.4 µM
N[C@@H]1CONC1=O [CYCLOSERINE],121 µM,> 245 µM,167 µM,196 µM,242 µM
CC[C@@H](CO)NCCN[C@@H](CC)CO [ETHAMBUTOL],> 122 µM,> 122 µM,> 122 µM,> 122 µM,> 122 µM
NNC(=O)c1ccncc1 [ISONIAZID],> 182 µM,> 182 µM,> 182 µM,> 182 µM,> 182 µM
COc1c(N2C[C@@H]3CCCN[C@@H]3C2)c(F)cc2c(=O)c(C(=O)O)cn(C3CC3)c12 [MOXIFLOXACIN],0.7 µM,0.5 µM,1.4 µM,0.4 µM,0.3 µM
CO[C@H]1/C=C/O[C@@]2(C)Oc3c(C)c(O)c4c(O)c(c(/C=N/N5CCN(C)CC5)c(O)c4c3C2=O)NC(=O)/C(C)=C\C=C\[C@H](C)[C@H](O)[C@@H](C)[C@@H](O)[C@@H](C)[C@H](OC(C)=O)[C@@H]1C [RIFAMPIN],> 30.4 µM,> 30.4 µM,> 30.4 µM,> 30.4 µM,
